This is an account of results in patent US7323454B2, “Etonogestrel esters” (N.V. Organon, priority 2002, dated 2008).

This data set is described as follows: Pharmacokinetics of etonogestrel esters in the rabbit after one i.m. injection; plasma etonogestrel by LC-MSMS. Format: in vivo. The protocol:
For the determination of the pharmacokinetic profile of the different etonogestrel-esters after parenteral application, i.m. application in the castrated rabbit model was chosen instead of s.c. Briefly, rabbits were injected once (day 1) with indicated etonogestrel-esters at 20 mg/kg in arachis oil (with a concentration of 40 mg/ml). At day 1, 2, 3, 4, 5, 6, 7, 8, 10, 12, 14, 21, 28, 35, 49, 63, 77, 92, 106, 120 and 133 blood was collected from the ear arteria, in EDTA-containing tubes. EDTA plasma was prepared (1500 g, 15 min) and stored at −20° C. With LC-MSMS the amount of parent compound (etonogestrel) was determined in these samples. The lower limit of this new assay is 0.5 nmol/l, from 0-250 nmol/l a linear curve was obtained with a correlation coefficient of 0,9998.

Where [1] appears, read: one i.m. injection, 20 mg/kg in arachis oil.
The mark [2] stands for this setting: one i.m. injection, 20 mg/kg in arachis oil, parent etonogestrel measured.

Regarding `C#C[C@]1(OC(=O)CCCCCCCC)CC[C@H]2[C@@H]3CCC4=CC(=O)CC[C@@H]4[C@H]3C(=C)C[C@@]21CC` [Etonogestrel nonanoate], under setting [1], the “duration with serum levels of etonogestrel above 1 nmol/l (in words)” value is given as “extended duration” and the “initial peak levels of etonogestrel (in words)” value is on record as “lower peak levels”. On to `C#C[C@]1(OC(=O)CCCCCC)CC[C@H]2[C@@H]3CCC4=CC(=O)CC[C@@H]4[C@H]3C(=C)C[C@@]21CC` [Etonogestrel-heptanoate], for which the “initial peak level of etonogestrel in plasma” value (“initial peak level … in plasma” below) under setting [2] is 120 nmol/L. In the case of `C#CC1(OC(=O)CCCCCCCCC)CCC2C3CCC4=CC(=O)CCC4C3C(=C)CC21CC` (stereo not shown) [etonogestrel decanoate], the “time of initial peak level of etonogestrel” value (“time … of etonogestrel” below) under setting [1] was found to be 5 days. Moreover, the “initial peak level … in plasma” value under setting [2] was found to be 24 nmol/L. On to `C#C[C@]1(OC(=O)CCCCCCCCCCC)CC[C@H]2[C@@H]3CCC4=CC(=O)CC[C@@H]4[C@H]3C(=C)C[C@@]21CC` [etonogestrel dodecanoate], for which the “time … of etonogestrel” value under setting [1] came to 8 days. Also, the “initial peak level … in plasma” value under setting [2] turned out to be 9 nmol/L. Turning to `C#C[C@]1(OC(=O)CCCCCCCCCCCC)CC[C@H]2[C@@H]3CCC4=CC(=O)CC[C@@H]4[C@H]3C(=C)C[C@@]21CC` [etonogestrel tridecanoate], under setting [1], the “initial peak levels of etonogestrel (in words)” value is on record as “no initial levels of etonogestrel were observed”. As for `C#C[C@]1(OC(=O)CCCCCCCCCC)CC[C@H]2[C@@H]3CCC4=CC(=O)CC[C@@H]4[C@H]3C(=C)C[C@@]21CC` [etonogestrel undecanoate], under setting [1], the “duration of action (etonogestrel level above 1 nmol/l)” value is “more than 92 days” and the “time … of etonogestrel” value is reported as “eight”. For the same compound, the “initial peak level … in plasma” value under setting [2] amounted to 13 nmol/L. For the compound `C#C[C@]1(O)CC[C@H]2[C@@H]3CCC4=CC(=O)CC[C@@H]4[C@H]3C(=C)C[C@@]21CC` [etonogestrel, (17α)-13-ethyl-17-hydroxy-11-methylene-18,19-dinorpregn-4-en-20-yn-3-one], for the setting “in vivo, 20 mg/kg”, the “initial peak level … in plasma” value was 200 nmol/L and the “time in which etonogestrel levels declined to below 1 nmol/l” value turned out to be 28 days.
